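Where inhibition never reached the appropriate level, the endpoint shown equals the highest concentration tested. Otherwise, values were interpolated linearly from a five-concentration, 48-hour dose response in 96-well plates. TGI marks complete inhibition of growth.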
Assays:
Assay in all cases: NCI tumour cell line growth inhibition, 48 h
SK-OV-3 ovarian = system: SK-OV-3 ovarian
M14 melanoma = system: M14 melanoma
OVCAR-5 ovarian = system: OVCAR-5 ovarian
LOX IMVI melanoma = system: LOX IMVI melanoma
NCI-H522 lung = system: NCI-H522 lung
MOLT-4 leukemia = system: MOLT-4 leukemia
NCI/ADR-RES ovarian = system: NCI/ADR-RES ovarian
T-47D breast = system: T-47D breast
DU-145 prostate = system: DU-145 prostate
RXF 393 renal = system: RXF 393 renal
HCT-15 colon = system: HCT-15 colon
HS 578T breast = system: HS 578T breast
NCI-H23 lung = system: NCI-H23 lung
COLO 205 colon = system: COLO 205 colon
CAKI-1 renal = system: CAKI-1 renal
SF-268 CNS = system: SF-268 CNS
EKVX NSCLC = system: EKVX NSCLC
SNB-19 CNS = system: SNB-19 CNS
SK-MEL-5 melanoma = system: SK-MEL-5 melanoma
TK-10 renal = system: TK-10 renal
SW-620 colon = system: SW-620 colon
UACC-62 melanoma = system: UACC-62 melanoma
IGROV1 ovarian = system: IGROV1 ovarian
RPMI-8226 leukemia = system: RPMI-8226 leukemia
SK-MEL-28 melanoma = system: SK-MEL-28 melanoma
OVCAR-4 ovarian = system: OVCAR-4 ovarian
U251 CNS = system: U251 CNS
ACHN renal = system: ACHN renal
SNB-75 CNS = system: SNB-75 CNS
SF-539 CNS = system: SF-539 CNS
MDA-N = system: MDA-N
SK-MEL-2 melanoma = system: SK-MEL-2 melanoma
KM12 colon = system: KM12 colon
HCC-2998 colon = system: HCC-2998 colon
A498 renal = system: A498 renal
MALME-3M melanoma = system: MALME-3M melanoma
MDA-MB-231 breast = system: MDA-MB-231 breast
HOP-92 NSCLC = system: HOP-92 NSCLC
SN12C renal = system: SN12C renal
OVCAR-3 ovarian = system: OVCAR-3 ovarian
K-562 leukemia = system: K-562 leukemia
HL-60(TB) leukemia = system: HL-60(TB) leukemia
HCT-116 colon = system: HCT-116 colon
BT-549 breast = system: BT-549 breast
786-0 renal = system: 786-0 renal
MDA-MB-435 = system: MDA-MB-435
SF-295 CNS = system: SF-295 CNS
UO-31 renal = system: UO-31 renal
HOP-62 NSCLC = system: HOP-62 NSCLC
MCF7 breast = system: MCF7 breast
SR leukemia = system: SR leukemia
PC-3 prostate = system: PC-3 prostate
OVCAR-8 ovarian = system: OVCAR-8 ovarian
HT29 colon = system: HT29 colon
NCI-H460 lung = system: NCI-H460 lung
UACC-257 melanoma = system: UACC-257 melanoma
NCI-H226 lung = system: NCI-H226 lung
A549 NSCLC = system: A549 NSCLC

CC(=O)NC1C(OCc2ccccc2)OC(CO)C(O)C1OC(C)C(=O)NC(C(=O)NC(CCC(=O)NCCCCNc1c2ccccc2nc2cccc([N+](=O)[O-])c12)C(N)=O)C(C)C (stereo not drawn)
TGI (SK-OV-3 ovarian): > 63.3 µM
TGI (M14 melanoma): 3.32 µM
TGI (OVCAR-5 ovarian): 19.8 µM
TGI (LOX IMVI melanoma): 4.68 µM
TGI (NCI-H522 lung): 0.511 µM
TGI (MOLT-4 leukemia): 26.8 µM
TGI (NCI/ADR-RES ovarian): > 100 µM
TGI (T-47D breast): > 38.2 µM
TGI (DU-145 prostate): 19.6 µM
TGI (RXF 393 renal): 3.56 µM
TGI (HCT-15 colon): 40.2 µM
TGI (HS 578T breast): 42.6 µM
TGI (NCI-H23 lung): 4.75 µM
TGI (COLO 205 colon): 11.6 µM
TGI (CAKI-1 renal): > 100 µM
TGI (SF-268 CNS): 13.1 µM
TGI (EKVX NSCLC): 10.1 µM
TGI (SNB-19 CNS): 34.5 µM
TGI (SK-MEL-5 melanoma): 7.39 µM
TGI (TK-10 renal): 32.4 µM
TGI (SW-620 colon): > 32.9 µM
TGI (UACC-62 melanoma): 5.03 µM
TGI (IGROV1 ovarian): 10.4 µM
TGI (RPMI-8226 leukemia): 2.39 µM
TGI (SK-MEL-28 melanoma): 7.19 µM
TGI (OVCAR-4 ovarian): 3.97 µM
TGI (U251 CNS): > 56.7 µM
TGI (ACHN renal): 9.18 µM
TGI (SNB-75 CNS): 10.5 µM
TGI (SF-539 CNS): 11.2 µM
TGI (MDA-N): 3.67 µM
TGI (SK-MEL-2 melanoma): 12.5 µM
TGI (KM12 colon): 7.68 µM
TGI (HCC-2998 colon): 3.47 µM
TGI (A498 renal): 4.74 µM
TGI (MALME-3M melanoma): 4.08 µM
TGI (MDA-MB-231 breast): 25.5 µM
TGI (HOP-92 NSCLC): 4.52 µM
TGI (SN12C renal): 9.53 µM
TGI (OVCAR-3 ovarian): 6.14 µM
TGI (K-562 leukemia): > 100 µM
TGI (HL-60(TB) leukemia): 6.77 µM
TGI (HCT-116 colon): 10.5 µM
TGI (BT-549 breast): 20.8 µM
TGI (786-0 renal): 5.45 µM
TGI (MDA-MB-435): 2.84 µM
TGI (SF-295 CNS): 43.1 µM
TGI (UO-31 renal): 13.4 µM
TGI (HOP-62 NSCLC): 11.7 µM
TGI (MCF7 breast): > 44 µM
TGI (SR leukemia): 2.61 µM
TGI (PC-3 prostate): > 30.8 µM
TGI (OVCAR-8 ovarian): 9.62 µM
TGI (HT29 colon): 8.71 µM
TGI (NCI-H460 lung): 9.93 µM
TGI (UACC-257 melanoma): 15.9 µM
TGI (NCI-H226 lung): 12.3 µM
TGI (A549 NSCLC): 7.77 µM
